Results: ChEMBL document CHEMBL1201862, “PubChem BioAssay data set” (2004)
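Results reflect a 48-hour exposure of cells in 96-well plates to compound at five concentrations. Abbreviation: GI50, concentration required for 50% inhibition of growth.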 Calls of active or inactive are those of the source. No stated cut-off is given here; in the data, active = GI50 up to about 1.1 µM and inactive = higher.

How the values were obtained:
Assay in all cases: NCI tumour cell line growth inhibition, 48 h
COLO 205 = system: COLO 205
SK-OV-3 = system: SK-OV-3
OVCAR-3 = system: OVCAR-3
HOP-62 = system: HOP-62
SK-MEL-2 = system: SK-MEL-2
BT-549 = system: BT-549
M14 = system: M14
OVCAR-8 = system: OVCAR-8
DU-145 = system: DU-145
MDA-N = system: MDA-N
OVCAR-5 = system: OVCAR-5
PC-3 = system: PC-3
Hs-578T = system: Hs-578T
SNB-19 = system: SNB-19
Malme-3M = system: Malme-3M
MCF7 = system: MCF7
SR = system: SR
NCI-H226 = system: NCI-H226
K562 = system: K562
RPMI-8226 = system: RPMI-8226

Row | Compound | GI50 (COLO 205) | GI50 (SK-OV-3) | GI50 (OVCAR-3) | GI50 (HOP-62) | GI50 (SK-MEL-2) | GI50 (BT-549) | GI50 (M14) | GI50 (OVCAR-8) | GI50 (DU-145) | GI50 (MDA-N) | GI50 (OVCAR-5) | GI50 (PC-3) | GI50 (Hs-578T) | GI50 (SNB-19) | GI50 (Malme-3M) | GI50 (MCF7) | GI50 (SR) | GI50 (NCI-H226) | GI50 (K562) | GI50 (RPMI-8226)
1 | COC(=O)C1(Cc2ccccc2)Cc2cc3c(cc2C1=O)CCC3 (stereo not given) | 19.5 µM (inactive) | 41.1 µM (inactive) | 40 µM (inactive) | 80.5 µM (inactive) | 18.3 µM (inactive) | 43.7 µM (inactive) | 20 µM (inactive) | 31.2 µM (inactive) | 48.1 µM (inactive) | 15 µM (inactive) | 58.9 µM (inactive) | 26.1 µM (inactive) | 49.7 µM (inactive) | 47.1 µM (inactive) | 22.5 µM (inactive) | 13.9 µM (inactive) | 21.9 µM (inactive) | 27.4 µM (inactive) | 31.4 µM (inactive) | 23.1 µM (inactive)
2 | S=C(c1c[nH]c2ccccc12)N1CCOCC1 | > 100 µM (inactive) | > 100 µM (inactive) | > 100 µM (inactive) | > 100 µM (inactive) | > 100 µM (inactive) | > 100 µM (inactive) | > 100 µM (inactive) | > 100 µM (inactive) | > 100 µM (inactive) | > 100 µM (inactive) | > 100 µM (inactive) | > 100 µM (inactive) | 22.3 µM (inactive) | > 100 µM (inactive) | 25 µM (inactive) | > 100 µM (inactive) | > 100 µM (inactive) | 24.6 µM (inactive) | > 100 µM (inactive) | > 100 µM (inactive)
3 | C=CC[C@@]1([C@H](C=C)COCc2ccc(OC)cc2)CC[C@]2(C)OC(C)(C)[C@@H](c3ccccc3)N2C1=S | 19.1 µM (inactive) | 86.5 µM (inactive) | 59.4 µM (inactive) | 71.8 µM (inactive) | 23.5 µM (inactive) | 40.7 µM (inactive) | 35.3 µM (inactive) | 48.5 µM (inactive) | 54.5 µM (inactive) | 49.5 µM (inactive) | 50 µM (inactive) | 31.4 µM (inactive) | 52.2 µM (inactive) | 35.2 µM (inactive) | 37.6 µM (inactive) | 31.1 µM (inactive) | 73.5 µM (inactive) | 39.5 µM (inactive) | 27.4 µM (inactive) | 33.5 µM (inactive)
4 | O=CNc1ncn[nH]1 | > 100 µM (inactive) | > 100 µM (inactive) | > 100 µM (inactive) | > 100 µM (inactive) | > 100 µM (inactive) | > 100 µM (inactive) | > 100 µM (inactive) | > 100 µM (inactive) | > 100 µM (inactive) | > 100 µM (inactive) | > 100 µM (inactive) | > 100 µM (inactive) | > 100 µM (inactive) | > 100 µM (inactive) | > 100 µM (inactive) | > 100 µM (inactive) | > 100 µM (inactive) | > 100 µM (inactive) | > 100 µM (inactive) | > 100 µM (inactive)
5 | Cc1ccc2c(O)cc(-c3cccs3)nc2n1 | 6.98 µM (inactive) | 30.3 µM (inactive) | 14.3 µM (inactive) | 37.9 µM (inactive) | > 25.9 µM (inactive) | > 100 µM (inactive) | 6.59 µM (inactive) | 18.2 µM (inactive) | 30.5 µM (inactive) | 1.47 µM (inactive) | > 22.3 µM (inactive) | 11 µM (inactive) | 11.6 µM (inactive) | 11.7 µM (inactive) | 15.3 µM (inactive) | 3.86 µM (inactive) | 2.05 µM (inactive) | 8.91 µM (inactive) | 5.81 µM (inactive) | 5.05 µM (inactive)
6 | Cc1nc(Cl)c(Cl)c(Cl)n1 | 0.434 µM (active) | 3.47 µM (inactive) | 0.146 µM (active) | 0.451 µM (active) | 0.51 µM (active) | 0.199 µM (active) | 0.119 µM (active) | 0.755 µM (active) | 2.81 µM (inactive) | 1.6 µM (inactive) | 1.32 µM (inactive) | 0.348 µM (active) | 0.48 µM (active) | 1.39 µM (inactive) | 0.202 µM (active) | 0.575 µM (active) | < 0.01 µM (active) | 2.59 µM (inactive) | < 0.0113 µM (active) | < 0.0398 µM (active)
7 | NS(=O)(=O)c1ccc(/N=N/c2c(O)c(C(=O)O)cc3ccccc23)cc1 | > 54.5 µM (inactive) | > 100 µM (inactive) | > 100 µM (inactive) | 99.1 µM (inactive) | > 100 µM (inactive) | > 100 µM (inactive) | > 75.9 µM (inactive) | > 100 µM (inactive) | > 100 µM (inactive) | 59.2 µM (inactive) | > 100 µM (inactive) | > 100 µM (inactive) | > 100 µM (inactive) | 43.1 µM (inactive) | 26.1 µM (inactive) | > 90.2 µM (inactive) | 33.3 µM (inactive) | > 100 µM (inactive) | > 94.4 µM (inactive) | > 100 µM (inactive)
8 | CC(=O)O[C@@H](C1C[C@@H](C)[C@H]2[C@@](O)(O1)[C@H](O)[C@@]1(C)C3=CC[C@H]4C(C)(C)[C@@H](OC5OCC(O)C(O)C5O)CC[C@@]45C[C@@]35CC[C@]21C)C(C)(C)O (stereo not given in full) | 22 µM (inactive) | 26.5 µM (inactive) | 20.7 µM (inactive) | 32.7 µM (inactive) | 18.6 µM (inactive) | 26.7 µM (inactive) | 29.3 µM (inactive) | 29.8 µM (inactive) | 25.5 µM (inactive) | 26.9 µM (inactive) | 28.6 µM (inactive) | 21.7 µM (inactive) | 30.1 µM (inactive) | 34.4 µM (inactive) | 23.8 µM (inactive) | 17.9 µM (inactive) | 14.7 µM (inactive) | 20.6 µM (inactive) | 28.2 µM (inactive) | 18 µM (inactive)
9 | COc1ccc2c(c1)OC(c1cccnc1)C(c1ccccc1)C2=O (stereo not given) | > 100 µM (inactive) | 59.4 µM (inactive) | > 100 µM (inactive) | 25.9 µM (inactive) | > 100 µM (inactive) | > 100 µM (inactive) | > 100 µM (inactive) | 80.2 µM (inactive) | > 100 µM (inactive) | > 100 µM (inactive) | > 100 µM (inactive) | > 100 µM (inactive) | 54 µM (inactive) | 66.7 µM (inactive) | > 100 µM (inactive) | > 100 µM (inactive) | > 100 µM (inactive) | 98.9 µM (inactive) | > 100 µM (inactive) | > 100 µM (inactive)
10 | Nc1ncnc2c1ncn2[C@@H]1O[C@H](C(=O)O)[C@@H](O)[C@H]1O [5'-CARBOXY ADENOSINE] | > 100 µM (inactive) | > 100 µM (inactive) | > 100 µM (inactive) | > 100 µM (inactive) | > 100 µM (inactive) | > 100 µM (inactive) | > 100 µM (inactive) | > 100 µM (inactive) | > 100 µM (inactive) | > 100 µM (inactive) | > 100 µM (inactive) | > 100 µM (inactive) | > 100 µM (inactive) | > 100 µM (inactive) | > 100 µM (inactive) | > 100 µM (inactive) | > 100 µM (inactive) | > 100 µM (inactive) | > 100 µM (inactive) | > 100 µM (inactive)
11 | COc1cccc2c1C1(O)C2CCCCCCCCCC12OCCCO2 (stereo not given) | > 33.8 µM (inactive) | > 45.3 µM (inactive) | > 40.2 µM (inactive) | > 38.3 µM (inactive) | > 40.5 µM (inactive) | 92 µM (inactive) | > 58.1 µM (inactive) | > 41.8 µM (inactive) | 92.7 µM (inactive) | 35.2 µM (inactive) | > 40.7 µM (inactive) | 6.44 µM (inactive) | > 100 µM (inactive) | 27.7 µM (inactive) | > 47 µM (inactive) | 19.8 µM (inactive) | 3 µM (inactive) | > 47.9 µM (inactive) | 6.19 µM (inactive) | 7.29 µM (inactive)
12 | C/C(=N\N=C(/S)N(C)C)c1cccc[n+]1[O-] | 0.82 µM (active) | 70.5 µM (inactive) | 5.12 µM (inactive) | 18 µM (inactive) | 38.5 µM (inactive) | 49.9 µM (inactive) | 25.9 µM (inactive) | 23.7 µM (inactive) | 59 µM (inactive) | 95.1 µM (inactive) | 35.9 µM (inactive) | 15.4 µM (inactive) | 92.9 µM (inactive) | 91 µM (inactive) | 43.7 µM (inactive) | 8.05 µM (inactive) | 1.23 µM (inactive) | 54.6 µM (inactive) | 0.631 µM (active) | 3.62 µM (inactive)
13 | O=[N+]([O-])c1cccc(Cl)c1Oc1ccc(S(=O)(=O)N/C(=N\O)Nc2ccc(Cl)cc2)cc1 | 17.1 µM (inactive) | 17.1 µM (inactive) | 10.3 µM (inactive) | 20.2 µM (inactive) | 13 µM (inactive) | 14.5 µM (inactive) | 14.2 µM (inactive) | 16.3 µM (inactive) | 15.5 µM (inactive) | 12.7 µM (inactive) | 17 µM (inactive) | 11.5 µM (inactive) | 5.79 µM (inactive) | 16.2 µM (inactive) | 13.1 µM (inactive) | 13.3 µM (inactive) | 6.14 µM (inactive) | 21.2 µM (inactive) | 14.3 µM (inactive) | 6.01 µM (inactive)
14 | CC1CCCN(CP(=O)(c2ccccc2)c2ccccc2)C1 (stereo not given) | > 100 µM (inactive) | > 100 µM (inactive) | 78.2 µM (inactive) | > 100 µM (inactive) | > 100 µM (inactive) | > 100 µM (inactive) | > 100 µM (inactive) | > 100 µM (inactive) | > 100 µM (inactive) | > 100 µM (inactive) | > 100 µM (inactive) | > 100 µM (inactive) | > 100 µM (inactive) | > 100 µM (inactive) | > 100 µM (inactive) | > 100 µM (inactive) | > 100 µM (inactive) | > 100 µM (inactive) | > 100 µM (inactive) | 43.5 µM (inactive)
